What was measured:
Assay type in all cases: cell-based
[1] = target: proteins of U3A human fibrosarcoma cells (4462 proteins detected) (Homo sapiens, UniProt O00567); details: protein NOP56; U3A cells
[2] = target: proteins of U3A human fibrosarcoma cells (4462 proteins detected) (Homo sapiens, UniProt O15066); details: protein KIF3B; U3A cells
[3] = target: proteins of U3A human fibrosarcoma cells (4462 proteins detected) (Homo sapiens, UniProt O75351); details: protein VPS4B; soluble abundance after heat, U3A cells
[4] = target: proteins of U3A human fibrosarcoma cells (4462 proteins detected) (Homo sapiens, UniProt P23469); details: protein PTPRE; soluble abundance after heat, U3A cells
[5] = target: proteins of U3A human fibrosarcoma cells (4462 proteins detected) (Homo sapiens, UniProt P30519); details: protein HMOX2; U3A, 10 μM, 2 h
[6] = target: proteins of U3A human fibrosarcoma cells (4462 proteins detected) (Homo sapiens, UniProt P46087); details: protein NOP2; U3A cells
[7] = target: proteins of U3A human fibrosarcoma cells (4462 proteins detected) (Homo sapiens, UniProt P52272); details: protein HNRNPM; U3A cells
[8] = target: proteins of U3A human fibrosarcoma cells (4462 proteins detected) (Homo sapiens, UniProt P63146); details: protein UBE2B, U3A cells
[9] = target: proteins of U3A human fibrosarcoma cells (4462 proteins detected) (Homo sapiens, UniProt Q13263); details: protein TRIM28; U3A cells
[10] = target: proteins of U3A human fibrosarcoma cells (4462 proteins detected) (Homo sapiens, UniProt Q6SPF0); details: protein SAMD1; soluble abundance after heat, U3A cells
[11] = target: proteins of U3A human fibrosarcoma cells (4462 proteins detected) (Homo sapiens, UniProt Q6V1X1); details: protein DPP8; U3A cells
[12] = target: proteins of U3A human fibrosarcoma cells (4462 proteins detected) (Homo sapiens, UniProt Q75QN2); details: protein INTS8; U3A cells
[13] = target: proteins of U3A human fibrosarcoma cells (4462 proteins detected) (Homo sapiens, UniProt Q7Z3E5); details: protein ARMC9; U3A, 10 μM, 2 h
[14] = target: proteins of U3A human fibrosarcoma cells (4462 proteins detected) (Homo sapiens, UniProt Q8IUD2); details: protein ERC1, U3A cells
[15] = target: proteins of U3A human fibrosarcoma cells (4462 proteins detected) (Homo sapiens, UniProt Q969Z0); details: protein TBRG4; U3A cells
[16] = target: proteins of U3A human fibrosarcoma cells (4462 proteins detected) (Homo sapiens, UniProt Q96PE7); details: protein MCEE; U3A, 10 μM, 2 h
[17] = target: proteins of U3A human fibrosarcoma cells (4462 proteins detected) (Homo sapiens, UniProt Q9BVS5); details: protein TRMT61B; soluble abundance after heat, U3A cells
[18] = target: proteins of U3A human fibrosarcoma cells (4462 proteins detected) (Homo sapiens, UniProt Q9C0C9); details: protein UBE2O; soluble abundance after heat, U3A cells
[19] = target: proteins of U3A human fibrosarcoma cells (4462 proteins detected) (Homo sapiens, UniProt Q9GZV4); details: protein EIF5A2; U3A, 10 μM, 2 h
[20] = target: proteins of U3A human fibrosarcoma cells (4462 proteins detected) (Homo sapiens, UniProt Q9HC44); details: protein GPBP1L1; soluble abundance after heat, U3A cells
[21] = target: proteins of U3A human fibrosarcoma cells (4462 proteins detected) (Homo sapiens, UniProt Q9NTZ6); details: protein RBM12; soluble abundance after heat, U3A cells
[22] = target: proteins of U3A human fibrosarcoma cells (4462 proteins detected) (Homo sapiens, UniProt Q9NU23); details: protein LYRM2; U3A, 10 μM, 2 h
[23] = target: proteins of U3A human fibrosarcoma cells (4462 proteins detected) (Homo sapiens, UniProt Q9NVR2); details: protein INTS10; U3A cells
[24] = target: proteins of U3A human fibrosarcoma cells (4462 proteins detected) (Homo sapiens, UniProt Q9NVZ3); details: protein NECAP2; U3A cells
[25] = target: proteins of U3A human fibrosarcoma cells (4462 proteins detected) (Homo sapiens, UniProt Q9NXR8); details: protein ING3, U3A cells
[26] = target: proteins of U3A human fibrosarcoma cells (4462 proteins detected) (Homo sapiens, UniProt Q9UHA3); details: protein RSL24D1; U3A cells
[27] = target: proteins of U3A human fibrosarcoma cells (4462 proteins detected) (Homo sapiens, UniProt Q9UJU6); details: protein DBNL, U3A cells
[28] = target: proteins of U3A human fibrosarcoma cells (4462 proteins detected) (Homo sapiens, UniProt Q9Y3C8); details: protein UFC1; U3A cells
[29] = target: proteins of U3A human fibrosarcoma cells (4462 proteins detected) (Homo sapiens, UniProt Q9Y6D5); details: protein ARFGEF2; U3A cells
Sequence of proteins of U3A human fibrosarcoma cells (4462 proteins detected) (Homo sapiens, UniProt Q9Y6D5) (Q9Y6D5 whole entry): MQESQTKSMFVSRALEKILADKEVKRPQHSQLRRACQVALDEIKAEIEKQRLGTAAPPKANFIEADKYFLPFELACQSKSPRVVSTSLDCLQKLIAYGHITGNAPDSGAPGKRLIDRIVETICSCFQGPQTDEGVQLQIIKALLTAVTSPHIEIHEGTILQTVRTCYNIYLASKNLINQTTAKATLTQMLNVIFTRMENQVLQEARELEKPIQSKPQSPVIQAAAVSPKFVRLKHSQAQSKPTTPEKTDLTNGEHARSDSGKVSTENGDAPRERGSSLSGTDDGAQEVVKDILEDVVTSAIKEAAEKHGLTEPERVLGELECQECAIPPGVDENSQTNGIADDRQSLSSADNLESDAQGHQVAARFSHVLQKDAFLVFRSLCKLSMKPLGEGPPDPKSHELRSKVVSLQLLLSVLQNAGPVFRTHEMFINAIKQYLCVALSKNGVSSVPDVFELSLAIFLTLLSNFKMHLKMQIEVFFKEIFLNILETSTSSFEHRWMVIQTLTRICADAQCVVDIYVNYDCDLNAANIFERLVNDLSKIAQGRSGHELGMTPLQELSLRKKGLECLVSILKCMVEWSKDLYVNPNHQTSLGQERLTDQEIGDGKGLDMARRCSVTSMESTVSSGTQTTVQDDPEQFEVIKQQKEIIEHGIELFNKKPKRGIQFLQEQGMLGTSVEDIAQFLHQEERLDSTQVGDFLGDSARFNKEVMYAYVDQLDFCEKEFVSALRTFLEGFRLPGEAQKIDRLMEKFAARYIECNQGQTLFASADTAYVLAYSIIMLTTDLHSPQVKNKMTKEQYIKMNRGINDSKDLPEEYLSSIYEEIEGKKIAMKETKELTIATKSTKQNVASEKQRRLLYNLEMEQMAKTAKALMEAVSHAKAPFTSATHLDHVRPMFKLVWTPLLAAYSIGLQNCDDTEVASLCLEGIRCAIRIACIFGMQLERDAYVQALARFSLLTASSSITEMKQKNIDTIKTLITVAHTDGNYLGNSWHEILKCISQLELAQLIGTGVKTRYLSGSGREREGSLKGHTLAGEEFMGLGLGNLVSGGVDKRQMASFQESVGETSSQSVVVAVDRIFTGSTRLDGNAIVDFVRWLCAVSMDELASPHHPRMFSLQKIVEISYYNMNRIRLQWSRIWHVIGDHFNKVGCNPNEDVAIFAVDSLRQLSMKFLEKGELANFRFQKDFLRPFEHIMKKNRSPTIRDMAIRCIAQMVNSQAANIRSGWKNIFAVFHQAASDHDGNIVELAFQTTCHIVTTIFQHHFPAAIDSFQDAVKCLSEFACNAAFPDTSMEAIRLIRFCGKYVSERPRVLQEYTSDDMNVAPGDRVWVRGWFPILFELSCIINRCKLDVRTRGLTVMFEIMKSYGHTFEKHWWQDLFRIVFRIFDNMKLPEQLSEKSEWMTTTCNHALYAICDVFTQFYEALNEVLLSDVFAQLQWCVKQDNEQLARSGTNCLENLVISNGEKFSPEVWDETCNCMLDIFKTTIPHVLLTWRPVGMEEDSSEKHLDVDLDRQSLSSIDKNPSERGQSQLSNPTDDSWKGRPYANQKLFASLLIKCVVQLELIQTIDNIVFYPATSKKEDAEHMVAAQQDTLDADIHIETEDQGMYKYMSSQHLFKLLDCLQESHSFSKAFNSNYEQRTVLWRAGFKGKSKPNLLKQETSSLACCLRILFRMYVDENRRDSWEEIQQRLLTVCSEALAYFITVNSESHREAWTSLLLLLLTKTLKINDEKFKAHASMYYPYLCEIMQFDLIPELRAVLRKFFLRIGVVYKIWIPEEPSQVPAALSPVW

Sequence of proteins of U3A human fibrosarcoma cells (4462 proteins detected) (Homo sapiens, UniProt O00567) (O00567 whole entry): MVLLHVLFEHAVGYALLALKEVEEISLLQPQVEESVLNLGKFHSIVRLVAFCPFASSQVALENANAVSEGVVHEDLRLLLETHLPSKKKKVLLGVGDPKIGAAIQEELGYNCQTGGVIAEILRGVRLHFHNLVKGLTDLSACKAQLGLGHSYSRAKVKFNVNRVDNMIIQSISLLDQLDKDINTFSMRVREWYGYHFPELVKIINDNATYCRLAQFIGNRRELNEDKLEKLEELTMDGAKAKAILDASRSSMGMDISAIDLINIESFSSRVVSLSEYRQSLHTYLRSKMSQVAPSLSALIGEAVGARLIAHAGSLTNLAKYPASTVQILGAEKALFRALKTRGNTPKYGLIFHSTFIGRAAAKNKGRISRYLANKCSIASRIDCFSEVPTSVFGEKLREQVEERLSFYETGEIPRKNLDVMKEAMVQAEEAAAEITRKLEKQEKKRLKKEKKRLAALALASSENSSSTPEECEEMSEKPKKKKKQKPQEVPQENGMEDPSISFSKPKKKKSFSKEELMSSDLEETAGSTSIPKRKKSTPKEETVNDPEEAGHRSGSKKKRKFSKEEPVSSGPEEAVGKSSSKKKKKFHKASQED
Sequence of proteins of U3A human fibrosarcoma cells (4462 proteins detected) (Homo sapiens, UniProt Q9NU23) (Q9NU23 20-88): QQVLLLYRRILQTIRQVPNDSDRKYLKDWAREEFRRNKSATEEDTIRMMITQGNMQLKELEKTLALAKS
Sequence of proteins of U3A human fibrosarcoma cells (4462 proteins detected) (Homo sapiens, UniProt P46087) (P46087 whole entry): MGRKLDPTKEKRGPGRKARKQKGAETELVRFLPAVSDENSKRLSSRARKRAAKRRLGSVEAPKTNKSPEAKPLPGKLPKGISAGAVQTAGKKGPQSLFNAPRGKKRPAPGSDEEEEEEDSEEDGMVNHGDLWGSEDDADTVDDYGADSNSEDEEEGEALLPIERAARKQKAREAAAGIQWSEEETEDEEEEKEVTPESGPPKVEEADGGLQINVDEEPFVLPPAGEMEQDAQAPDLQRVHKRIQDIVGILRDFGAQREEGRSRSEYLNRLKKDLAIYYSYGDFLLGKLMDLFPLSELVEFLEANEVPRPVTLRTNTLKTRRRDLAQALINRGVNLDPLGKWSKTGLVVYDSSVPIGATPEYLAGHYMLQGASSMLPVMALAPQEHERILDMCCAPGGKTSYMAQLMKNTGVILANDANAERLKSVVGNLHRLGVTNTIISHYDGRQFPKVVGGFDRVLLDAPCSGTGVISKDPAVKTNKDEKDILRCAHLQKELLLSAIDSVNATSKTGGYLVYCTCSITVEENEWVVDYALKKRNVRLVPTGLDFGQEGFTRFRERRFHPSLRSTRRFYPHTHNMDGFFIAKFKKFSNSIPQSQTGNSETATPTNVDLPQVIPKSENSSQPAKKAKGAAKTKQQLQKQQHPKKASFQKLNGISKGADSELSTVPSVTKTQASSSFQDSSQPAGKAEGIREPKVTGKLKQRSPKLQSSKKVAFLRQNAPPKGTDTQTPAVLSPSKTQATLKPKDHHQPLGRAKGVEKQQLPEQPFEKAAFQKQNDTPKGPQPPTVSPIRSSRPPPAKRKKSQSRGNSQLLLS
Sequence of proteins of U3A human fibrosarcoma cells (4462 proteins detected) (Homo sapiens, UniProt P63146) (P63146 whole entry): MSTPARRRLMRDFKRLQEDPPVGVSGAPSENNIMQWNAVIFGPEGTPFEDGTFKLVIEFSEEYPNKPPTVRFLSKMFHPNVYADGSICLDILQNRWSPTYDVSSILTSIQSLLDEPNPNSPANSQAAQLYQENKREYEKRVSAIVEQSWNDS
Sequence of proteins of U3A human fibrosarcoma cells (4462 proteins detected) (Homo sapiens, UniProt Q9Y3C8) (Q9Y3C8 whole entry): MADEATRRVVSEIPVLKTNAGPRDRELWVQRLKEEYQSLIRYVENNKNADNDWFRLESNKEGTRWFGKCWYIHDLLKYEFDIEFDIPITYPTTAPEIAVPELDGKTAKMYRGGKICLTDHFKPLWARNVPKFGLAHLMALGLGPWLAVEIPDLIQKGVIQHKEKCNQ
Sequence of proteins of U3A human fibrosarcoma cells (4462 proteins detected) (Homo sapiens, UniProt Q7Z3E5) (Q7Z3E5 whole entry): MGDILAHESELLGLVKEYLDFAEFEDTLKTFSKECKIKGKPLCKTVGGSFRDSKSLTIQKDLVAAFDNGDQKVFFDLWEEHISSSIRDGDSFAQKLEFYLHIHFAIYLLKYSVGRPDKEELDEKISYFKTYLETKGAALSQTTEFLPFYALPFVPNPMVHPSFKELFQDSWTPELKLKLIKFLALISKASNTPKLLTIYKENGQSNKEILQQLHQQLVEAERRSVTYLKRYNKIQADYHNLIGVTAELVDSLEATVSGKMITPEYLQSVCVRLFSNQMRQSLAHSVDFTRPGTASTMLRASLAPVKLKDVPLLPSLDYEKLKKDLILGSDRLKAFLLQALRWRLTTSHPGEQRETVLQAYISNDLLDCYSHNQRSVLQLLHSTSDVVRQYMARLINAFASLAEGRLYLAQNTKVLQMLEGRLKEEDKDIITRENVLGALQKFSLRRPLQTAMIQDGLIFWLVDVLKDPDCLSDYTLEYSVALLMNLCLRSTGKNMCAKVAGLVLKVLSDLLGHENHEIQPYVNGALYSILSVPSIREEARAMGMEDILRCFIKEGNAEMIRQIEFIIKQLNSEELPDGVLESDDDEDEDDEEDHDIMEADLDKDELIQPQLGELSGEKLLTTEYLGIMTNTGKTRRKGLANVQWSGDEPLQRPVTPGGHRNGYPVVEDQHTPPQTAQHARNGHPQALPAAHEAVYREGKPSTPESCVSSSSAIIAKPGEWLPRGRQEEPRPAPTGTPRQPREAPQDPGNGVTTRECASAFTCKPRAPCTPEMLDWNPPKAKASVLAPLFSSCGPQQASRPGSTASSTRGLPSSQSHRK
Sequence of proteins of U3A human fibrosarcoma cells (4462 proteins detected) (Homo sapiens, UniProt Q9UJU6) (Q9UJU6 whole entry): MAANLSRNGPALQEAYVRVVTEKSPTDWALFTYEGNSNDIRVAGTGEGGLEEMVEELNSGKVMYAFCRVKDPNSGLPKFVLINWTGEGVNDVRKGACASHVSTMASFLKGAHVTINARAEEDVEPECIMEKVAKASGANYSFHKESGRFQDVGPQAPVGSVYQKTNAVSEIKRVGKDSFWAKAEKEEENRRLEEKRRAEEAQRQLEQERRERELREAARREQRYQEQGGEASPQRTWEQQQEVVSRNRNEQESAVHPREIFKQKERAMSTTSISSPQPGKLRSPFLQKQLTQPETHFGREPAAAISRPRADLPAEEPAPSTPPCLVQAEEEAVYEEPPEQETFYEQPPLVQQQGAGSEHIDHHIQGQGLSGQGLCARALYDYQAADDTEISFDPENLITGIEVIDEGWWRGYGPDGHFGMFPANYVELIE
Sequence of proteins of U3A human fibrosarcoma cells (4462 proteins detected) (Homo sapiens, UniProt Q96PE7) (Q96PE7 37-176): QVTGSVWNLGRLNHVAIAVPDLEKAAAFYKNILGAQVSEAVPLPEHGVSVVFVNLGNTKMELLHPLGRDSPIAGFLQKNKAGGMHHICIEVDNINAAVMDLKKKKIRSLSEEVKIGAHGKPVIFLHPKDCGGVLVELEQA

Compound: CCc1nc(N)nc(N)c1-c1ccc(Cl)cc1 [pyrimethamine]
- Log2 (PYR/DMSO) [1]: 0.21
- Log2 (PYR/DMSO) [2]: 0.16
- Log2 (PYR/DMSO) [3]: 0.14
- Log2 (PYR/DMSO) [4]: 0.13
- Log2 (PYR/DMSO), HMOX2 [5]: 0.25
- Log2 (PYR/DMSO) [6]: 0.16
- Log2 (PYR/DMSO) [7]: 0.16
- Log2 (PYR/DMSO) [8]: -0.04
- Log2 (PYR/DMSO) [9]: 0.16
- Log2 (PYR/DMSO) [10]: 0.15
- Log2 (PYR/DMSO) [11]: 0.16
- Log2 (PYR/DMSO) [12]: 0.18
- Log2 (PYR/DMSO), ARMC9 [13]: -0.15
- Log2 (PYR/DMSO) [14]: -0.04
- Log2 (PYR/DMSO) [15]: 0.19
- Log2 (PYR/DMSO), MCEE [16]: 0.25
- Log2 (PYR/DMSO) [17]: 0.13
- Log2 (PYR/DMSO) [18]: 0.14
- Log2 (PYR/DMSO), EIF5A2 [19]: -0.18
- Log2 (PYR/DMSO) [20]: 0.14
- Log2 (PYR/DMSO) [21]: 0.15
- Log2 (PYR/DMSO), LYRM2 [22]: 0.27
- Log2 (PYR/DMSO) [23]: 0.18
- Log2 (PYR/DMSO) [24]: 0.21
- Log2 (PYR/DMSO) [25]: -0.04
- Log2 (PYR/DMSO) [26]: 0.17
- Log2 (PYR/DMSO) [27]: -0.04
- Log2 (PYR/DMSO) [28]: 0.16
- Log2 (PYR/DMSO) [29]: 0.18

— article PMC8800111 (The Journal of Biological Chemistry, 2021)
